Test results from the NIST ThermoML archive (doi:10.1016/j.jct.2006.08.002).

Experiment: xn = mol fraction of the nth substance listed
Conditions: Fluid (supercritical or subcritical phases), Constant-volume piezometry

CCO [ethanol] + O
Conditions | mass density [kg/m3]
553.15 K, 25720 kPa, x1 = 0.5 | 555.9
553.15 K, 47100 kPa, x1 = 0.5 | 614.98
558.15 K, 8310 kPa, x1 = 0.8 | 115
558.15 K, 10340 kPa, x1 = 0.8 | 188.54
558.15 K, 11380 kPa, x1 = 0.8 | 260.63
558.15 K, 11700 kPa, x1 = 0.8 | 283.97
558.15 K, 13990 kPa, x1 = 0.8 | 382.62
558.15 K, 15170 kPa, x1 = 0.8 | 405.66
563.15 K, 6360 kPa, x1 = 0.5 | 55.95
563.15 K, 7510 kPa, x1 = 0.5 | 69.25
563.15 K, 8400 kPa, x1 = 0.5 | 84.4
563.15 K, 8830 kPa, x1 = 0.2 | 67.68
563.15 K, 9900 kPa, x1 = 0.5 | 117.41
563.15 K, 11080 kPa, x1 = 0.5 | 171.24
563.15 K, 12360 kPa, x1 = 0.5 | 327.3
563.15 K, 12940 kPa, x1 = 0.8 | 312.28
563.15 K, 12970 kPa, x1 = 0.8 | 312.28
563.15 K, 13290 kPa, x1 = 0.5 | 385.56
563.15 K, 14460 kPa, x1 = 0.8 | 367.22
563.15 K, 16510 kPa, x1 = 0.5 | 463.66
563.15 K, 23620 kPa, x1 = 0.5 | 521.79
568.15 K, 9040 kPa, x1 = 0.2 | 67.66
573.15 K, 5420 kPa, x1 = 0.8 | 53.14
573.15 K, 6590 kPa, x1 = 0.5 | 55.92
573.15 K, 7820 kPa, x1 = 0.5 | 69.21
573.15 K, 8780 kPa, x1 = 0.5 | 84.36
573.15 K, 8990 kPa, x1 = 0.8 | 114.92
573.15 K, 10460 kPa, x1 = 0.5 | 117.35
573.15 K, 11580 kPa, x1 = 0.8 | 188.4
573.15 K, 12050 kPa, x1 = 0.5 | 171.15
573.15 K, 12840 kPa, x1 = 0.8 | 243.61
573.15 K, 13010 kPa, x1 = 0.5 | 234.43
573.15 K, 13190 kPa, x1 = 0.8 | 260.43
573.15 K, 13610 kPa, x1 = 0.5 | 293.62
573.15 K, 13720 kPa, x1 = 0.8 | 283.75
573.15 K, 14410 kPa, x1 = 0.8 | 306.79
573.15 K, 14490 kPa, x1 = 0.8 | 312.12
573.15 K, 15660 kPa, x1 = 0.5 | 385.34
573.15 K, 16440 kPa, x1 = 0.8 | 367.02
573.15 K, 16820 kPa, x1 = 0.5 | 419.39
573.15 K, 17060 kPa, x1 = 0.5 | 421.07
573.15 K, 17150 kPa, x1 = 0.8 | 382.31
573.15 K, 17210 kPa, x1 = 0.5 | 424.29
573.15 K, 18650 kPa, x1 = 0.8 | 405.32
573.15 K, 20120 kPa, x1 = 0.5 | 463.38
573.15 K, 21340 kPa, x1 = 0.8 | 439.21
573.15 K, 22500 kPa, x1 = 0.8 | 451.39
573.15 K, 28040 kPa, x1 = 0.5 | 521.47
573.15 K, 39960 kPa, x1 = 0.5 | 567.95
573.15 K, 44900 kPa, x1 = 0.5 | 580.76
577.15 K, 45760 kPa, x1 = 0.8 | 552.13
578.15 K, 23390 kPa, x1 = 0.8 | 445.43
578.15 K, 35170 kPa, x1 = 0.8 | 514.74
578.15 K, 38000 kPa, x1 = 0.5 | 555.01
593.15 K, 50760 kPa, x1 = 0.5 | 567.2
598.15 K, 5820 kPa, x1 = 0.8 | 53.08
598.15 K, 7080 kPa, x1 = 0.5 | 55.85
598.15 K, 8560 kPa, x1 = 0.5 | 69.13
598.15 K, 9720 kPa, x1 = 0.5 | 84.26
598.15 K, 10060 kPa, x1 = 0.8 | 114.78
598.15 K, 11840 kPa, x1 = 0.5 | 117.21
598.15 K, 12030 kPa, x1 = 0.2 | 90.05
598.15 K, 13600 kPa, x1 = 0.8 | 188.16
598.15 K, 14290 kPa, x1 = 0.2 | 138.08
598.15 K, 15290 kPa, x1 = 0.2 | 221.72
598.15 K, 15460 kPa, x1 = 0.2 | 286.74
